Where two headings read alike, the source gives them in different places.
Key:
[1] = test system: HIV-1 infection of TZM-bl cells; experiment: HIV-1 infectivity enhancement assay, β-galactosidase luminescence; type: cell-based; details: for Rel-EFC / Log10 Infection Rel EFC: 1.3 µM peptide; for Rel-EFC: infection relative to EF-C (QCKIKQIINMWQ = 1); for Log10 Infection Rel EFC: log10 of infection relative to EF-C; for Log Infectivity: Log10 infection relative to EF-C, TZM-bl cells, asymmetric std dev errors; for Log10 Infection Rel EF-C: HIV-1 infection of TZM-bl cells; for Abs. Inf.: absolute infection signal, HIV-1 on TZM-bl cells, β-galactosidase luminescence; for Log10 Inf. rel. to EF-C: log10 of HIV-1 infection of TZM-bl cells relative to EF-C (EF-C = 0)
[2] = type: physicochemical; details: for ThT Cat. / ThT-Fluorescence (categorical): ThT-active if fluorescence at least twice the control
Outline: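 Fibrils (1 mg/mL solution) were mixed with 50 µM ThT in PBS for 15 min at RT, and fluorescence was read at λex 440/λem 488 nm against a PBS blank, as a triplicate mean ± SD. Zeta potential came from electrophoretic mobility (Smoluchowski) after 1 d aggregation at 1 mg/mL in PBS pH 7.4, diluted into 1 mM KCl.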

[3] = Turbidity, derived count rate of scattered light; type: physicochemical; details: for Count Rate: derived count rate of scattered light (turbidity); for Log10 Count Rate: turbidity, derived count rate of scattered light, data of Figure 2D
[4] = Fig. S7 panel A (plotted against β-sheet content)
[5] = Log10 of infection rate relative to EF-C, Figure 3A source data
[6] = infection rate relative to EF-C, log10, data of Figure 2D
[7] = infection rate relative to EF-C, log10, source data of Figure 2C
[8] = Fig. S7 panel B (plotted against CR), rounded to two decimals
[9] = ThT fluorescence category, 1 if Rel. ThT >2

| Substance | Rel-EFC [1] | Log10 Infection Rel EFC [1] | Log Infectivity [1, 4] | Log10 Infection Rel EF-C [1, 5] | Log10 Infection Rel EF-C [1, 6] | Log10 Infection Rel EF-C [1, 7] | Abs. Inf. [1] | Log10 Inf. rel. to EF-C [1] | Tht category (> 2 to blank = +) ([2]; Fig S10 panel D) | Tht category (> 2 to blank = +) ([2]; FigS12 panel A) | ThT Cat, ([2]; FigS12 panel B) | ThT Cat, ([2]; ThT category, 1 if Rel. ThT >2) | ThT Cat. ([2]; ThT category, 1 if Rel. ThT >2) | ThT Cat. / ThT-Fluorescence (categorical) [2] | Count Rate [3] | Log10 Count Rate [3] | Log Infectivity [1, 8] | ThT Cat. ([2]; Fig S10 panel E) | ThT Cat. [2, 9] |
| --- | --- | --- | --- | --- | --- | --- | --- | --- | --- | --- | --- | --- | --- | --- | --- | --- | --- | --- | --- |
| KIRGKFEKED | 0,06 | -1,24 | -1.2355 | -1.24 | -1.2355 | -1.2355 | 643.3 | -1.2355 | 1 (ThT. Cat is 1, if Rel. ThT >2) | 1 (ThT. Cat is 1, if Rel. ThT >2) | 1 (ThT. Cat is 1, if Rel. ThT >2) | 1 (ThT. Cat is 1, if Rel. ThT >2) | 1 (ThT. Cat is 1, if Rel. ThT >2) | 1 (ThT. Cat is 1, if Rel. ThT >2) | 214.4 | 2.331 |  |  |  |
| KKFQKKFQ | 0,03 | -1,54 | -1.545 | -1.54 | -1.545 | -1.545 | 423.3 | -1.545 | 0 (ThT-inactive (N-Fold <2)) | 0 (ThT-inactive (N-Fold <2)) | 0 (ThT-inactive (N-Fold <2)) | 0 (ThT-inactive (N-Fold <2)) | 0 (ThT-inactive (N-Fold <2)) | 0 (ThT-inactive (N-Fold <2)) | 73.6 | 1.867 |  |  |  |
| KNDKND | 0,01 | -1,98 | -1.978 | -1.98 | -1.978 | -1.978 | 230 | -1.978 | 0 (ThT-inactive (N-Fold <2)) | 0 (ThT-inactive (N-Fold <2)) | 0 (ThT-inactive (N-Fold <2)) | 0 (ThT-inactive (N-Fold <2)) | 0 (ThT-inactive (N-Fold <2)) | 0 (ThT-inactive (N-Fold <2)) | 52.4 | 1.719 |  |  |  |
| KNERIKNERI | 0,01 | -1,89 | -1.888 | -1.89 | -1.888 | -1.888 | 143.3 | -1.888 | 0 (ThT-inactive (N-Fold <2)) | 0 (ThT-inactive (N-Fold <2)) | 0 (ThT-inactive (N-Fold <2)) | 0 (ThT-inactive (N-Fold <2)) | 0 (ThT-inactive (N-Fold <2)) | 0 (ThT-inactive (N-Fold <2)) | 321.9 | 2.508 | -1.89 | 0 (ThT-inactive (N-Fold <2)) |  |
| KVKGVGK | 0,03 | -1,59 | -1.587 | -1.59 | -1.587 | -1.587 | 286.7 | -1.587 | 0 (ThT-inactive (N-Fold <2)) | 0 (ThT-inactive (N-Fold <2)) | 0 (ThT-inactive (N-Fold <2)) | 0 (ThT-inactive (N-Fold <2)) | 0 (ThT-inactive (N-Fold <2)) | 0 (ThT-inactive (N-Fold <2)) | 51.17 | 1.709 |  |  |  |
| KVKVKVQV | 0,02 | -1,76 | -1.763 | -1.76 | -1.763 | -1.763 | 466.7 | -1.763 | 1 (ThT. Cat is 1, if Rel. ThT >2) | 1 (ThT. Cat is 1, if Rel. ThT >2) | 1 (ThT. Cat is 1, if Rel. ThT >2) | 1 (ThT. Cat is 1, if Rel. ThT >2) | 1 (ThT. Cat is 1, if Rel. ThT >2) | 1 (ThT. Cat is 1, if Rel. ThT >2) | 94.37 | 1.975 |  |  |  |
| KWKWQW | 0,01 | -1,84 | -1.838 | -1.84 | -1.838 | -1.838 |  |  | 0 (ThT-inactive (N-Fold <2)) | 0 (ThT-inactive (N-Fold <2)) | 0 (ThT-inactive (N-Fold <2)) | 0 (ThT-inactive (N-Fold <2)) |  | 0 (ThT-inactive (N-Fold <2)) | 1545 | 3.189 |  |  | 0 (ThT-inactive (N-Fold <2)) |
| KYKGAIIGNIK | 0 | -2,51 | -2.508 | -2.51 | -2.508 | -2.508 | 80 | -2.508 | 0 (ThT-inactive (N-Fold <2)) | 0 (ThT-inactive (N-Fold <2)) | 0 (ThT-inactive (N-Fold <2)) | 0 (ThT-inactive (N-Fold <2)) | 0 (ThT-inactive (N-Fold <2)) | 0 (ThT-inactive (N-Fold <2)) | 44.1 | 1.644 |  |  |  |
| KYKYQY | 0,01 | -1,99 | -1.9887 | -1.99 | -1.9887 | -1.9887 |  |  | 1 (ThT. Cat is 1, if Rel. ThT >2) | 1 (ThT. Cat is 1, if Rel. ThT >2) | 1 (ThT. Cat is 1, if Rel. ThT >2) | 1 (ThT. Cat is 1, if Rel. ThT >2) |  | 1 (ThT. Cat is 1, if Rel. ThT >2) | 31.53 | 1.499 |  |  | 1 (ThT. Cat is 1, if Rel. ThT >2) |
| MDQMDQMDQMDQMDQ | 0 | -2,37 | -2.37 | -2.37 | -2.37 | -2.37 | 63.33 | -2.37 | 0 (ThT-inactive (N-Fold <2)) | 0 (ThT-inactive (N-Fold <2)) | 0 (ThT-inactive (N-Fold <2)) | 0 (ThT-inactive (N-Fold <2)) | 0 (ThT-inactive (N-Fold <2)) | 0 (ThT-inactive (N-Fold <2)) | 9.6 | 0.9823 | -2.37 | 0 (ThT-inactive (N-Fold <2)) |  |
